The target in one experiment is T1, hNaV1.6 channel (Homo sapiens, UniProt Q9UQD0).
T1 construct: expressed in transfected cells
As to the kind of experiment: Automated patch-clamp block of hNaV1.6 peak Na+ current in HEK-293 cells. The experiment is classed as cell-based. Particulars: for IC50: HEK-293 cells stably expressing hNaV1.6, SyncroPatch 384 PE whole-cell, holding -100 mV, 0 mV test pulse 50 ms every 5 s, room temperature 18-22°C, 0.3% BSA, steady state or end of 15-min application, mean, S.E.M. and n cells; for hNaV1.6 IC50 versus WT: ratio of analogue mean IC50 to HwTx-IV WT mean IC50 on hNaV1.6. The protocol:
(§1) CHO cells stably expressing the hNaV1.7 channel subtype were cultured in Dulbecco’s Modified Eagle’s Medium F-12 (DMEM/F12) supplemented with 10% fetal bovine serum, 2 mM glutamine, 200 μg/ml hygromycine B, 10 U/ml penicillin and 10 μg/ml streptomycin (Gibco, Grand Island, NY). HEK-293 cells stably expressing the hNaV1.6 channel subtype were cultured in Dulbecco’s Modified Eagle’s Medium (DMEM) supplemented with 10% fetal calf serum, 1 mM pyruvic acid, 4.5 g/L glucose, 2 mM glutamine, 800 μg/ml G418, 10 U/ml penicillin and 10 μg/ml streptomycin (Gibco, Grand Island, NY). All cell lines were incubated at 37°C in a 5% CO2 atmosphere. For electrophysiological recordings, cells were detached with trypsin, and floating single cells were diluted (∼300,000 cells/ml) in an extracellular solution containing (in mM): 140 NaCl, 4 KCl, 2 CaCl2, 1 MgCl2, 5 glucose and 10 HEPES (pH 7.4, osmolarity 298 mOsm), that was used throughout the experiments.
(§2) HwTx-IV analogues were investigated on CHO cells expressing hNav1.7 channel and HEK-293 cells expressing hNaV1.6 channel using the automated patch-clamp system from Nanion (SyncroPatch 384 PE; München, Germany). Chips with single-hole and high-resistance (∼6–7 MΩ) were used for both cell lines. Voltage pulses and whole-cell recordings were achieved using the PatchControl384 v1.5.2 software (Nanion) and the Biomek v1.0 interface (Beckman Coulter). Prior to recordings, dissociated cells were shaken at 200 RPM in a cell hotel reservoir at 10°C. After cell catching, sealing, whole-cell formation, liquid application, recording, and data acquisition were all performed sequentially and automatically. The intracellular solution contained (in mM): 110 CsF, 10 CsCl, 10 NaCl, 1 MgCl2, 1 CaCl2, 10 EGTA and 10 HEPES (pH 7.2, osmolarity 280 mOsm), and the extracellular solution was as described above. Whole-cell experiments were done at −100 mV holding potential and at room temperature (18–22°C), while currents triggered at either −10 or 0 mV test potential were sampled at 20 kHz. Stimulation frequency was set at 0.2 Hz. Each HwTx-IV analogue was prepared at various concentrations in the extracellular solution, itself supplemented with 0.3% of bovine serum albumin (BSA), also added in the control solution. The peptides were distributed in 384-well microplates according to the number of compounds to be tested (generally four), the concentration range defined from the IC50 of wild-type HwTx-IV, and the number of cells desired for each experimental condition. Compound solutions were diluted 3 times in the patch-clamp recording well by adding 30–60 μl external solution, to reach the final reported concentration and the test volume of 90 μl. For establishing dose-response curves, the compounds were tested at a test potential of either −10 or 0 mV for 50 ms with a pulse every 5 s. Percentages of current inhibition were measured at steady-state of blockage or at the end of a 15-min application time.
For orientation: The patch-clamp technique gives a direct electrical read-out from membranes.

The target in the next experiment is T2, hNaV1.7 channel (Homo sapiens, UniProt Q15858).
T2 construct: expressed in transfected cells
T2 sequence (Q15858 whole entry): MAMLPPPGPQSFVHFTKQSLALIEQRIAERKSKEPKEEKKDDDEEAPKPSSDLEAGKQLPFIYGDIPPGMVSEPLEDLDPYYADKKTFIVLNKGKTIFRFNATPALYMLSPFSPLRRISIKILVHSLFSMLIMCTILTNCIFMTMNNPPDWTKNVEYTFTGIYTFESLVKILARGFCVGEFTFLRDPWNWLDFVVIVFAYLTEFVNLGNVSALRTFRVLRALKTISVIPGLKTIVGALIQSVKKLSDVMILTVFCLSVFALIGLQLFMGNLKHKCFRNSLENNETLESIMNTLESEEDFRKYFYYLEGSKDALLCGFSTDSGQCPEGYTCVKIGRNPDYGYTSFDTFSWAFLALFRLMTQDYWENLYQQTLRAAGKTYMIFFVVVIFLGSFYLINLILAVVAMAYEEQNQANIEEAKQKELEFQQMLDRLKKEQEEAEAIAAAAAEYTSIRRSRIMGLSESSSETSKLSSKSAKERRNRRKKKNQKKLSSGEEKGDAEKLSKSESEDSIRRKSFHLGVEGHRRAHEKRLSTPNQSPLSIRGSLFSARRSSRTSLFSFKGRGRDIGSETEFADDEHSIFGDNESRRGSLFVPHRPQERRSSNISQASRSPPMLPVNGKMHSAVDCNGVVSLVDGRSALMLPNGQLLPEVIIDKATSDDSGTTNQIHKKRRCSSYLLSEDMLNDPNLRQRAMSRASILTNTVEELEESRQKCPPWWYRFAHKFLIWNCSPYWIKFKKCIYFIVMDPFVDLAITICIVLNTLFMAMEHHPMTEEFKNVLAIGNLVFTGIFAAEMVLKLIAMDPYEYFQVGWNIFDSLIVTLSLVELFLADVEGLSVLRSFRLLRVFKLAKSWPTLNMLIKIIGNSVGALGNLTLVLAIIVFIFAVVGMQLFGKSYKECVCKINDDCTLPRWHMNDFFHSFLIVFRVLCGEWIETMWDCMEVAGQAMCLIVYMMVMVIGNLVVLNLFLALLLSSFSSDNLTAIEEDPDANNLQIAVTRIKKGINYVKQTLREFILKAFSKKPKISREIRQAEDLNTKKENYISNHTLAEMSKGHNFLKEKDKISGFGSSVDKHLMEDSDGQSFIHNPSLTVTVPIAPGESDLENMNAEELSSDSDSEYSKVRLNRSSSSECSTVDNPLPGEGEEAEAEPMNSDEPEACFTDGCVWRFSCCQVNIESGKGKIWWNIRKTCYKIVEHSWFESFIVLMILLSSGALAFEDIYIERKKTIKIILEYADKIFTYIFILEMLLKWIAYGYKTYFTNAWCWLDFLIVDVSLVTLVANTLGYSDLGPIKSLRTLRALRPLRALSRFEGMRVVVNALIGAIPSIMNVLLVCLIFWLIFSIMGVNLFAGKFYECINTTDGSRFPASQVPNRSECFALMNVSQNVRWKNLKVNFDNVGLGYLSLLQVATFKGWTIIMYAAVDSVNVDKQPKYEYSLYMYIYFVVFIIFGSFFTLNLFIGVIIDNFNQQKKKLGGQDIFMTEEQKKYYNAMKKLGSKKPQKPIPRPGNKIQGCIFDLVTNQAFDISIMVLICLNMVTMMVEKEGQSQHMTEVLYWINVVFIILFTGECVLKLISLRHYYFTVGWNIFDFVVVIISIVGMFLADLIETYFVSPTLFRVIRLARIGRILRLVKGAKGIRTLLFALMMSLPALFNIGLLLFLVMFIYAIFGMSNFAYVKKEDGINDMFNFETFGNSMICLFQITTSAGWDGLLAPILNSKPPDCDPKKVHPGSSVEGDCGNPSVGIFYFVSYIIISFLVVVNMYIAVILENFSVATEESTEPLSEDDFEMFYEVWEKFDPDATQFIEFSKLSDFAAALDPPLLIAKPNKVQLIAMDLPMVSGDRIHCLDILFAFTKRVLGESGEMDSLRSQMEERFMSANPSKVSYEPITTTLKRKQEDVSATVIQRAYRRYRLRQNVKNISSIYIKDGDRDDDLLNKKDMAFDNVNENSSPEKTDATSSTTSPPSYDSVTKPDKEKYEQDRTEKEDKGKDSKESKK
As to the kind of experiment: Automated patch-clamp block of hNaV1.7 peak Na+ current in CHO cells. In kind it is cell-based. Particulars: for IC50: CHO cells stably expressing hNaV1.7, SyncroPatch 384 PE whole-cell, holding -100 mV, -10 mV test pulse 50 ms every 5 s, room temperature 18-22°C, 0.3% BSA, steady state or end of 15-min application, mean, S.E.M. and n cells; for hNaV1.7 IC50 versus WT: ratio of analogue mean IC50 to HwTx-IV WT mean IC50 on hNaV1.7; for hNaV1.7/hNaV1.6 selectivity ratio: inverse ratio of the mean IC50 values on hNaV1.7 (CHO) and hNaV1.6 (HEK-293) of Table 1. How it is done:
as §1
as §2, with “The peptides were distributed in 384-well microplates according to the number of compounds to be tested (generally four), the concentration range defined from the IC50 of wild-type HwTx-IV, and the number of cells desired for each experimental condition.” left out

T1 sequence (Q9UQD0 whole entry): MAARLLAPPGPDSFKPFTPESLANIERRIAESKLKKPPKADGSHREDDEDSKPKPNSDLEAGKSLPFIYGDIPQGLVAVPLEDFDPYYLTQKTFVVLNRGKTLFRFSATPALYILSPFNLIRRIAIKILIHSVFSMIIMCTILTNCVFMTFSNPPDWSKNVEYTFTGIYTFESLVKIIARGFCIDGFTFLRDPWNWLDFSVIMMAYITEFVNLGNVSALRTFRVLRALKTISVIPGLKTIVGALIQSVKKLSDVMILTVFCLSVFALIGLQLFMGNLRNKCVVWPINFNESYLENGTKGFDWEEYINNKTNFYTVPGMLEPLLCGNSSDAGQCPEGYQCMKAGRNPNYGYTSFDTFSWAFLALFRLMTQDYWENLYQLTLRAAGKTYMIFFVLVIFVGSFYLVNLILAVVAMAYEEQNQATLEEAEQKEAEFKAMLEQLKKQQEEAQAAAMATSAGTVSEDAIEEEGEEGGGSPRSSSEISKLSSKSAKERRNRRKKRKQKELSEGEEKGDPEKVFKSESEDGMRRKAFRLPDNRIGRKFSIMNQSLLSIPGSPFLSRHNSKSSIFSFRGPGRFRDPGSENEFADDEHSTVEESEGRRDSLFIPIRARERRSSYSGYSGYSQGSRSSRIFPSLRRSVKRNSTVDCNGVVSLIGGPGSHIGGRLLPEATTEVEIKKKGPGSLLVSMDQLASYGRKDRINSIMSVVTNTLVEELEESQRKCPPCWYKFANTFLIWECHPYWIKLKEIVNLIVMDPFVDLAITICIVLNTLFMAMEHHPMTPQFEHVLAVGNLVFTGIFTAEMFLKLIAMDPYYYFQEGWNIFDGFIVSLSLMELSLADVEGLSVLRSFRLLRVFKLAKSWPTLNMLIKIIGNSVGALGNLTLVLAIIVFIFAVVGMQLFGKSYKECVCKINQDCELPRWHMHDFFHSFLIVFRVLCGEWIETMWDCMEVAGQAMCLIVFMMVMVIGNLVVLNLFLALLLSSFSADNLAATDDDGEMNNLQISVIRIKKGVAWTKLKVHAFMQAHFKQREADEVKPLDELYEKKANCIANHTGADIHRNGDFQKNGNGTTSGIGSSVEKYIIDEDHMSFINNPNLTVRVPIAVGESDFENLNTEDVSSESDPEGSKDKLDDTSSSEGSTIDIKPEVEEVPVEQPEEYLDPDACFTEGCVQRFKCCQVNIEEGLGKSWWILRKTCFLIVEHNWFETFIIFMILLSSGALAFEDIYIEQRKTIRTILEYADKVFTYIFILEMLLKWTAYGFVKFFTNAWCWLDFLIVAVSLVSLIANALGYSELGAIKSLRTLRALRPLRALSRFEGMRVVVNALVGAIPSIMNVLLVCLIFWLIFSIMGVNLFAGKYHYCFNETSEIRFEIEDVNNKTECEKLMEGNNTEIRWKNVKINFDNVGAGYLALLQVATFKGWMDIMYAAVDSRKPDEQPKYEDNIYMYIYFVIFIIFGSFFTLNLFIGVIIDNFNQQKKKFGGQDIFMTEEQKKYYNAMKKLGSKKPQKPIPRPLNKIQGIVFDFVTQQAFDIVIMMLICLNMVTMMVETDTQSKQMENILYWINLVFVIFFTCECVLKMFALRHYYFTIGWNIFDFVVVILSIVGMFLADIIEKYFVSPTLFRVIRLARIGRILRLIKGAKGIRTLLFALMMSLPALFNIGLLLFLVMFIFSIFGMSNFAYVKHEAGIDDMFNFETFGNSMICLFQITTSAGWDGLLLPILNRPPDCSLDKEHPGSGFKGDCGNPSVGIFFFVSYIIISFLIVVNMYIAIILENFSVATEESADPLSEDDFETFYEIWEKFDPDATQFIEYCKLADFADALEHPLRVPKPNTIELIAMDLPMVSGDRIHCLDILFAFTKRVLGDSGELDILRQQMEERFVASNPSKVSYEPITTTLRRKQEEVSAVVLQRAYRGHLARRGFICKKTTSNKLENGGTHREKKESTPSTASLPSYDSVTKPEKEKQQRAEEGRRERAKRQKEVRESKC

As to `CC[C@H](C)[C@H](NC(=O)[C@H](CCC(N)=O)NC(=O)[C@H](Cc1ccc(O)cc1)NC(=O)[C@H](CCCCN)NC(=O)[C@@H]1CSSC[C@@H]2NC(=O)[C@H](CCC(N)=O)NC(=O)[C@H](CC(=O)O)NC(=O)[C@H](CC(N)=O)NC(=O)[C@H](CO)NC(=O)[C@@H]3CCCN3C(=O)[C@H](CC(N)=O)NC(=O)[C@@H]3CSSC[C@H](NC(=O)[C@H](C(C)C)NC(=O)[C@H](CC(C)C)NC(=O)[C@H](CCCCN)NC(=O)[C@H](CO)NC(=O)[C@H](CO)NC(=O)[C@H](CCCCN)NC(=O)[C@H](CSSC[C@H](NC(=O)[C@@H](N)CCC(=O)O)C(=O)N[C@@H](CC(C)C)C(=O)N[C@@H](CCCCN)C(=O)N[C@@H]([C@@H](C)CC)C(=O)N[C@@H](Cc4ccccc4)C(=O)N[C@@H](CCCCN)C(=O)N[C@@H](C)C(=O)N3)NC2=O)C(=O)N[C@@H](CO)C(=O)N[C@@H](CCCNC(=N)N)C(=O)N[C@@H](CCCCN)C(=O)N[C@@H]([C@@H](C)O)C(=O)N[C@@H](CCCNC(=N)N)C(=O)N[C@@H](Cc2c[nH]c3ccccc23)C(=O)N1)C(=O)O` [HwTx-IV E^4K/CterCOOH], at hNaV1.6 channel, the IC50 stood at 0.136 µM and the “hNaV1.6 IC50 versus WT” value was 0.60. Besides, at hNaV1.7 channel, the IC50 worked out at 0.0119 µM and the “hNaV1.7 IC50 versus WT” value was 1.20.
Consider `CC[C@H](C)[C@H](NC(=O)[C@H](CCC(N)=O)NC(=O)[C@H](Cc1ccc(O)cc1)NC(=O)[C@H](CCCCN)NC(=O)[C@@H]1CSSC[C@@H]2NC(=O)[C@H](CCC(N)=O)NC(=O)[C@H](CC(=O)O)NC(=O)[C@H](CC(N)=O)NC(=O)[C@H](CO)NC(=O)[C@@H]3CCCN3C(=O)[C@H](CC(N)=O)NC(=O)[C@@H]3CSSC[C@H](NC(=O)[C@H](C(C)C)NC(=O)[C@H](CC(C)C)NC(=O)[C@H](CCCCN)NC(=O)[C@H](CO)NC(=O)[C@H](CO)NC(=O)[C@H](CCCCN)NC(=O)[C@H](CSSC[C@H](NC(=O)[C@@H](N)CCC(=O)O)C(=O)N[C@@H](CC(C)C)C(=O)N[C@@H](CCC(=O)O)C(=O)N[C@@H]([C@@H](C)CC)C(=O)N[C@@H](Cc4ccccc4)C(=O)N[C@@H](CCCCN)C(=O)N[C@@H](C)C(=O)N3)NC2=O)C(=O)N[C@@H](CO)C(=O)N[C@@H](CCCNC(=N)N)C(=O)N[C@@H](CCCCN)C(=O)N[C@@H]([C@@H](C)O)C(=O)N[C@@H](CCCNC(=N)N)C(=O)N[C@@H](Cc2c[nH]c3ccccc23)C(=O)N1)C(=O)O` [HwTx-IV CterCOOH], for which, at hNaV1.6 channel, the IC50 came to 1.23 µM and the “hNaV1.6 IC50 versus WT” value was 5.43. For the same molecule, at hNaV1.7 channel, the IC50 was determined as 0.176 µM and the “hNaV1.7 IC50 versus WT” value is reported as 17.81.
For `CC[C@H](C)[C@H](NC(=O)[C@H](CCC(N)=O)NC(=O)[C@H](Cc1ccc(O)cc1)NC(=O)[C@H](CCCCN)NC(=O)[C@@H]1CSSC[C@@H]2NC(=O)[C@H](CCC(N)=O)NC(=O)[C@H](CC(=O)O)NC(=O)[C@H](CC(N)=O)NC(=O)[C@H](CO)NC(=O)[C@@H]3CCCN3C(=O)[C@H](CC(N)=O)NC(=O)[C@@H]3CSSC[C@H](NC(=O)[C@H](C(C)C)NC(=O)[C@H](CC(C)C)NC(=O)[C@H](CCCCN)NC(=O)[C@H](CO)NC(=O)[C@H](CO)NC(=O)[C@H](C)NC(=O)[C@H](CSSC[C@H](NC(=O)[C@@H](N)CCC(=O)O)C(=O)N[C@@H](CC(C)C)C(=O)N[C@@H](CCC(=O)O)C(=O)N[C@@H]([C@@H](C)CC)C(=O)N[C@@H](Cc4ccccc4)C(=O)N[C@@H](CCCCN)C(=O)N[C@@H](C)C(=O)N3)NC2=O)C(=O)N[C@@H](CO)C(=O)N[C@@H](CCCNC(=N)N)C(=O)N[C@@H](CCCCN)C(=O)N[C@@H]([C@@H](C)O)C(=O)N[C@@H](CCCNC(=N)N)C(=O)N[C@@H](Cc2c[nH]c3ccccc23)C(=O)N1)C(N)=O` [HwTx-IV K^18A], on hNaV1.6 channel, the IC50 stood at 0.416 µM and the “hNaV1.6 IC50 versus WT” value was 1.84. On hNaV1.7 channel, the IC50 came out at 0.0064 µM, the hNaV1.7/hNaV1.6 selectivity ratio result is “above 46” and the “hNaV1.7 IC50 versus WT” value is on record as 0.65.
In the same order, the values of `CC[C@H](C)[C@H](NC(=O)[C@H](CCC(N)=O)NC(=O)[C@H](Cc1ccc(O)cc1)NC(=O)[C@H](CCCCN)NC(=O)[C@@H]1CSSC[C@@H]2NC(=O)[C@H](CCC(N)=O)NC(=O)[C@H](CC(=O)O)NC(=O)[C@H](CC(N)=O)NC(=O)[C@H](CO)NC(=O)[C@@H]3CCCN3C(=O)[C@H](CC(N)=O)NC(=O)[C@@H]3CSSC[C@H](NC(=O)[C@H](C(C)C)NC(=O)[C@H](CC(C)C)NC(=O)[C@H](CCCCN)NC(=O)[C@H](CO)NC(=O)[C@H](CO)NC(=O)[C@H](CCCCN)NC(=O)[C@H](CSSC[C@H](NC(=O)[C@@H](N)CCC(=O)O)C(=O)N[C@@H](CC(C)C)C(=O)N[C@@H](CCCCN)C(=O)N[C@@H]([C@@H](C)CC)C(=O)N[C@@H](Cc4ccccc4)C(=O)N[C@@H](CCCCN)C(=O)N[C@@H](C)C(=O)N3)NC2=O)C(=O)N[C@@H](CO)C(=O)N[C@@H](CCC(N)=O)C(=O)N[C@@H](CCCCN)C(=O)N[C@@H]([C@@H](C)O)C(=O)N[C@@H](CCCNC(=N)N)C(=O)N[C@@H](Cc2c[nH]c3ccccc23)C(=O)N1)C(N)=O` [HwTx-IV E^4K/R ^26Q] are 0.0034 µM, 0.02, 0.0036 µM, “less than 2” and 0.36.
With `CC[C@H](C)[C@H](NC(=O)[C@H](CCC(N)=O)NC(=O)[C@H](Cc1ccc(O)cc1)NC(=O)[C@H](CCCCN)NC(=O)[C@@H]1CSSC[C@@H]2NC(=O)[C@H](CCC(N)=O)NC(=O)[C@H](CC(=O)O)NC(=O)[C@H](CC(N)=O)NC(=O)[C@H](CO)NC(=O)[C@@H]3CCCN3C(=O)[C@H](CC(N)=O)NC(=O)[C@@H]3CSSC[C@H](NC(=O)[C@H](C(C)C)NC(=O)[C@H](CC(C)C)NC(=O)[C@H](CCCCN)NC(=O)[C@H](CO)NC(=O)[C@H](CO)NC(=O)[C@H](CCCCN)NC(=O)[C@H](CSSC[C@H](NC(=O)[C@@H](N)CCC(=O)O)C(=O)N[C@@H](CC(C)C)C(=O)N[C@@H](CCC(=O)O)C(=O)N[C@@H]([C@@H](C)CC)C(=O)N[C@@H](Cc4ccccc4)C(=O)N[C@@H](CCCCN)C(=O)N[C@@H](C)C(=O)N3)NC2=O)C(=O)N[C@@H](CO)C(=O)N[C@@H](CCCNC(=N)N)C(=O)N[C@@H](CCCCN)C(=O)N[C@@H](Cc2c[nH]c3ccccc23)C(=O)N[C@@H](CCCNC(=N)N)C(=O)N[C@@H](Cc2c[nH]c3ccccc23)C(=O)N1)C(N)=O` [HwTx-IV T^28W], on hNaV1.7 channel, it took 0.114 µM to reach half-maximal inhibition (IC50) and the “hNaV1.7 IC50 versus WT” value was 11.53.

As a reminder, the IC50 is the concentration at which inhibition is half-maximal. Read a low IC50 as greater potency in that assay.

The values are drawn from PMC8722715 (Frontiers in Cell and Developmental Biology, 2021).
